Reference: article PMC3944508, “Six New Tetraprenylated Alkaloids from the South China Sea Gorgonian Echinogorgia pseudossapo” (Marine Drugs, 2014)

What was measured:
Type in all cases: biochemical
[1] = biological target: T1, PDE4D (phosphodiesterase-4D) (Homo sapiens, UniProt Q08499); experiment: in vitro PDE inhibition assay, % inhibition at […]; details: read-out: Inhibition (%) of Compounds at 50 μM / PDE4D
PDE5A = PDE5A (Homo sapiens, UniProt O76074); experiment: in vitro PDE inhibition assay, % inhibition at […]; details: read-out: Inhibition (%) of Compounds at 50 μM / PDE5A
[2] = biological target: T1, PDE4D (phosphodiesterase-4D); experiment: in vitro PDE inhibition assay (previously reported method)

T1 sequence (Q08499 whole entry): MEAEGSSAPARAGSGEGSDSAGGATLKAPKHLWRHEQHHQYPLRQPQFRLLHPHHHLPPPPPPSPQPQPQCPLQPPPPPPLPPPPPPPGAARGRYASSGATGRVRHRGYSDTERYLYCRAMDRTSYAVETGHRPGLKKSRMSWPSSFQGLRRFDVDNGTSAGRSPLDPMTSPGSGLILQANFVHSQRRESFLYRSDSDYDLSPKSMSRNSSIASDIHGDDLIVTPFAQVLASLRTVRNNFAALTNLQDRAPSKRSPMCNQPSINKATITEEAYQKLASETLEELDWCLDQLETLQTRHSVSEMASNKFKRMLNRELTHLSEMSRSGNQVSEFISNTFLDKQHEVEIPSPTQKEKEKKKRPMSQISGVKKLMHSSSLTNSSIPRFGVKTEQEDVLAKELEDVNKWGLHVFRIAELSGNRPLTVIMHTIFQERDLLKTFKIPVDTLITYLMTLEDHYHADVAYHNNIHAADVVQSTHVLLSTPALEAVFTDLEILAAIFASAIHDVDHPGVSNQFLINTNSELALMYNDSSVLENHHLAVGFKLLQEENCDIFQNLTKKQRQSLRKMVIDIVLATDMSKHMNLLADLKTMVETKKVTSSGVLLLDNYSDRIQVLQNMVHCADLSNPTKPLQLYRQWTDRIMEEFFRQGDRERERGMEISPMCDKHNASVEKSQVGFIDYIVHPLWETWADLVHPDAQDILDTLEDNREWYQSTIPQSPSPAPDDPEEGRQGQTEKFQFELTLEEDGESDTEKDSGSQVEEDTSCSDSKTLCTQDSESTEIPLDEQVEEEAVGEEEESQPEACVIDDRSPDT

Compound: CC(C)=CC(=O)C/C(C)=C\CC/C(C)=C/CC/C(C)=C/Cn1cnc2c1c(=O)ncn2C [compound 2, malonganenone M]
- inhibition at 50 µM [1]: 72%

Compound: CC(C)=CC(=O)/C=C(\C)CCC/C(C)=C/CC/C(C)=C/Cn1cnc2c1c(=O)ncn2C [compound 3, malonganenone N]
- inhibition at 50 µM [1]: 81%

Compound: CC(C)=CC(=O)C/C(C)=C/CC/C(C)=C/CC/C(C)=C/Cn1cnc2c1c(=O)ncn2C [compound 1, malonganenone L]
- inhibition at 50 µM (PDE5A): 53%
- IC50 [2]: 8.5 µM

Compound: CNC(=O)c1c(N(C)C=O)ncn1C/C=C(\C)CC/C=C(\C)CC/C=C(/C)CC(=O)C=C(C)C [compound 5, malonganenone P]
- inhibition at 50 µM [1]: 75%

Compound: CNC(=O)c1c(N(C)C=O)ncn1C/C=C(\C)CC/C=C(\C)CCC/C(C)=C\C(=O)C=C(C)C [compound 6, malonganenone Q]
- IC50 [2]: 20.3 µM

Compound: CNC(=O)c1c(N(C)C=O)ncn1C/C=C(\C)CC/C=C(\C)CC/C=C(\C)CC(=O)C=C(C)C [compound 4, malonganenone O]
- inhibition at 50 µM [1]: 79%
